This data set addresses T1, Myogenin (Mus musculus, UniProt P12979).
T1 construct: electrophoretic mobility shift assays (EMSA) were carried out using muscle cell nuclear extracts; host or cells: C2C12 nuclear extract
T1 sequence (P12979 1-224): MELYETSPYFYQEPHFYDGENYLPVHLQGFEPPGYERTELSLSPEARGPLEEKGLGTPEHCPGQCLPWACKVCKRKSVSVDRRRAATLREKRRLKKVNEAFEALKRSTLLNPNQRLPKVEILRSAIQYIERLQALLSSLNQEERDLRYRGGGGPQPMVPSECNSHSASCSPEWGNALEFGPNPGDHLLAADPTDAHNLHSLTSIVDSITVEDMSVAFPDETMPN
Description: Electrophoretic mobility shift assay (EMSA) with muscle cell nuclear extracts. Format: binding. The conditions noted are these: biotin labeled probe, C2C12 nuclear extract. Background: A gel shift assay detects complexes by their altered migration in electrophoresis.

Regarding “CTCCTTTATTTCAGCGGAACTAAAGAAGTCTC (DNA, backbone and methylation of C not given here; duplex with complementary strand, biotin-labeled probe or unlabeled competitor) [G probe]”, the “binding of Myogenin protein (EMSA)” value is listed as “did not bind at all”.
In the case of “CTCCTTTATTTCAGCTGAACTAAAGAAGTCTC (DNA, backbone and methylation of C not given here; duplex with complementary strand, biotin-labeled probe or unlabeled competitor) [T probe, biotin labeled duplex EMSA probe with the escaper variant of the Jagged1 promoter]”, the “binding of Myogenin protein (EMSA)” value is on record as “robustly bound”.

Values taken from patent US20170224758A1, “COMPOSITIONS AND METHODS OF TREATING MUSCULAR DYSTROPHY” (THE BROAD INSTITUTE, INC., priority 2014, published 2017).
